pIC50: −log10 of the molar value.
What was measured:
[1] = Cytotoxicity (IC50) on HUVEC; format: cell-based, human; conditions: human, human umbilical vascular endothelial cells (HUVEC), normal cells, read-out: Cytotoxicity, IC50 HUVEC
Description: Human umbilical vascular endothelial cells (HUVECs) were purchased from Cascade Biologics, Inc. (USA). HUVECs were maintained in Medium 200 (Cascade Biologics, Inc. USA) supplemented with 10% fetal bovine serum (FBS; Gibco BRL) and low serum growth supplement (LSGS; Cascade Biologics, Inc. USA). Human dermal fibroblasts (HDFs) were purchased from Cascade Biologics, Inc. (USA). HDFs were maintained in Medium 106 (Cascade Biologics, Inc. USA) supplemented with 10% FBS and low serum growth supplement (LSGS; Cascade Biologics, Inc. USA). The human colon adenocarcinoma cell lines HT-29 were purchased from the ATCC (Manassas, Va. USA). HT-29 were maintained in Dubecco's Modified Eagle Medium (DMEM; Gibco) supplemented with 10% FBS and 100 ng/ml penicillin and […] streptomycin (Life Technologies, Inc., Grand Island, N.Y., USA). For the proliferation assay of cell in log growth (G1), the cells were harvested at 60-80% of confluence. 100 μl of cell suspensions were dispensed onto a Falcon 96-well plates The densities were 6×10^3 cells/well in Medium 200 (for HUVECs), and 9×10^3 cells/well in Medium 106 (for HDFs), and 5×10^3 cells/well in DMEM (for HT-29) supplemented with 10% FBS. The cells were pre-incubated for 24 hours in an incubator (Humidified atmosphere, e.g., at 37° C., 5% CO2). 10 μl of toxicant of various concentrations were added into the culture medium of the plate. The cell cultures were incubated for 48 hours. 10 μl of the Cell Counting Kit-8 (CCK-8; DOJINDO) solution were added and the cell cultures incubated for 1˜4 hours in the incubator. The absorbance was measured at 450 nm, using a microplate reader with a reference wavelength at 600 nm or over.
(§1) Human tumor cell lines (MCF-7, CL1-5, HT-29, Caco-2), human umbilical vascular endothelial cells (HUVEC), and human dermal fibroblasts (HDF) were tested for sensitivity on Angelicae sinensis extracts, ligustilide, n-butylidenephthalide and its derivatives in vitro. The DBTRG-05MG, BCM, HL-60 and J5 cells were grown in RPMI-1640 medium containing 10% fetal calf serum and 100 ng/ml penicillin and […] streptomycin at 37° C. in a humidified atmosphere with 5% CO2. The G5T/VGH, RG2, Ni 8, SVEC and Balb/3T3 cells were cultured in DMEM with 10% fetal calf serum and 100 ng/ml penicillin and […] streptomycin at 37° C. in 5% CO2. Mycoplasma infection of the culture cells was excluded by PCR screening methods before each experiment.
(§2) The effects on cell viability after the treatments with different concentrations of the Angelicae sinensis extracts or the active components purified therefrom were evaluated by modified MTT assay in triplicate. Briefly, the cells (5×10^3) were incubated into 96-well plates containing 100 μl of a growth medium. The cells were permitted to adhere for 24 hours, then treated with 100 μl of the herbal extracts or the active components dissolved in the medium. The control contained DMSO of <0.02% (v/v). After 24, 48 and 72 h incubation, the drug-containing medium was replaced by 50 μl of fresh medium, and cells in each well were incubated in 50 μl of 400 μg/ml MTT for 6-8 h. The medium and MTT were removed later and 100 μl of DMSO was added to each well and to the control, to dissolve the soluble components. Absorbance at 550 nm of the solutions was measured with MRX Microtiter Plate Luminometer (DYNEX, USA). The absorbance of untreated cells was considered as 100%. To evaluate the effects of the extracts or the active components on cell growth rate of GBM cells, 5×10^3 exponentially growing cells were treated with different concentrations for 24, 48, or 72 h. The cytotoxicity of each test substance was determined as an IC50 value, which represents the drug concentration required to cause 50% inhibition. All experiments in this study were performed in triplicate.

DBTRG-05MG = assay: Cell cycle analysis (PI staining, FACScan) in GBM cells; format: cell-based, human; conditions: 400 μM BP
Method: Brain tumor cell lines DBTRG-05MG and G5T/VGH were cultured in the growth medium with a diluent. For each test and control, DMSO was added, and the content is less than 0.02% (v/v). For the AS-C and BP treatment, 70 μg/ml of AS-C and 400 μM of BP were added, respectively. All were cultured for 48 hours. The analysis of cell cycle distribution was performed by DNA staining with propidium iodide (PI). Briefly, 2×10^6 adherent cells were detached by trypsinization. The detached cells and the floating dead cells were centrifuged and washed twice with 10 ml of cold 1×PBS (Life Technologies, Inc.). Supernatant was aspirated, cells were re-suspended in 0.8 ml of 1×PBS, and then 200 μl of PI solution (50 μg/ml PI+0.05 mg/ml RNase A; Sigma Chemical Co.) was added, and the cells were refrigerated at 4° C. overnight. The cells were incubated while protected from light at room temperature for at least 2 h before DNA analysis. After staining, DNA was detected and quantified on 20,000 total cells using a FACScan (Becton Dickinson Immunocytometry Systems, San Jose, Calif., USA) and CellQuest analysis software. The G0/G1 phases were gated in M1 (×2); G2/M phases were gated in M2 (×2); the total cells were gated in M3; S phase was M3−(M1(×2)+M2(×2)); Sub G1 phase (apoptosis cells) was gated in M4.

RG2 = assay: Cytotoxicity (IC50) on RG2; format: cell-based, rat; conditions: Rattus norvegicus, RG2
Method: as §1, §2

A549 = assay: Cytotoxicity (IC50) on A549; format: cell-based; conditions: Homo sapiens
Method: as §2

[2] = Cytotoxicity (IC50) on Balb/3T3; format: cell-based; conditions: mouse, Balb/3T3 cells
Method: as §1
(§3) The effects on cell viability after the treatments with different concentrations of the Angelicae sinensis extracts or the active components purified therefrom were evaluated by modified MTT assay in triplicate. Briefly, the cells (5×10^3) were incubated into 96-well plates containing 100 μl of a growth medium. The cells were permitted to adhere for 24 hours, then treated with 100 μl of the herbal extracts or the active components dissolved in the medium. The control contained DMSO of <0.02% (v/v). […] Absorbance at 550 nm of the solutions was measured with MRX Microtiter Plate Luminometer (DYNEX, USA). The absorbance of untreated cells was considered as 100%. […]

MCF-7 = assay: Cytotoxicity (IC50) on MCF-7; format: cell-based; conditions: Homo sapiens, MCF7
Method: as §1, §3

Compound: CCCC=C1OC(=O)c2ccccc21 [BP, n-Butylidenephthalide]
- pIC50 ([1]; Table 1, value in parentheses): < 3.27
- IC50 ([1]; Table 1): > 100 µg/mL
- cell cycle accumulation at G0/G1 phase (DBTRG-05MG): > 90%
- pIC50 (RG2; Table 1, value in parentheses): 5.13
- IC50 (RG2; Table 2): 1.4 µg/mL
- pIC50 (RG2; Table 2, value in parentheses): 5.13
- IC50 (RG2; cancer cells, Table 1): 1.4 µg/mL
- IC50 (A549; Table 2): 8 to 12 µg/mL
- pIC50 (A549; Table 2, value in parentheses): 4.20 to 4.37
- IC50 ([2]; Table 2): > 300 µg/mL
- pIC50 ([2]; Table 2, value in parentheses): < 2.80
- pIC50 (MCF-7; Table 1, value in parentheses): < 3.97
- IC50 (MCF-7; cancer cells, Table 1): > 20 µg/mL
